# Values of other authors in US20110217337A1, “BIOACTIVE AGENT FOR BONE TISSUE ENGINEERING” (UNIVERSITY OF CONNECTICUT, priority 2010, published 2011).
# What was measured:
# osteoblast = conditions: cited from earlier work
# cell proliferation = conditions: cited from earlier work
# osteogenesis = conditions: via the PKA pathway; cited from earlier work
# bone formation = conditions: via the PKA pathway; cited from earlier work
# cAMP receptors = conditions: in vivo; cited from earlier work
Compound,osteoblast proliferation (osteoblast),cell proliferation (cell proliferation),in vitro osteogenesis (osteogenesis),in vivo bone formation (bone formation),activation of cAMP receptors (cAMP receptors)
Nc1ncnc2c1nc(Br)n2[C@@H]1O[C@@H]2COP(=O)(O)O[C@H]2[C@H]1O [8-Br-cAMP],inhibits osteoblast proliferation,,,,
"CCCC(=O)Nc1ncnc2c1ncn2[C@@H]1O[C@@H]2COP(=O)(O)O[C@H]2[C@H]1OC(=O)CCC [db-cAMP, N^6,2′-O-dibutyryladenosine-3′,5′-cyclic monophosphate]",,inhibit cell proliferation,enhances,enhances,activate all cAMP receptors non-specifically
